{
  "source": "patent US20220000110A1",
  "about": "“COMPOSITIONS COMPRISING PYRIDINE CARBOXYLATE HERBICIDES AND CELLULOSE BIOSYNTHESIS INHIBITOR HERBICIDES” (priority 2018, published 2022)",
  "assay_type_in_all_cases": "in vivo",
  "key": {"[1]": {"system": "Hordeum vulgare (spring barley)", "details": "HORVS", "text": "(§1) Greenhouse Trial Methodology—Evaluation of Postemergence Herbicidal Effect\n(§2) Seeds of the desired test plant species were planted in a 90:10% v/v (volume/volume) mixture of PRO-MIX® BX (Premier Tech Horticulture, Quakertown, Pa., USA) and PROFILE® GREENS GRADE™ (Profile Products LLC, Buffalo Grove, Ill., USA) planting mixture, which typically has a pH of 5.2 to 6.2 and an organic matter content of at least 50 percent, in plastic pots with a surface area of 103.2 square centimeters (cm^2). In some aspects, to help ensure good germination and healthy plants, a fungicide treatment and/or other chemical or physical treatment was applied. The plants were grown for 7-36 days (d) in a greenhouse with an approximate 14-hour (h) photoperiod which was maintained at about 23° C. during the day and 22° C. during the night. Nutrients and water were added on a regular basis and supplemental lighting was provided with overhead metal halide 1000-Watt lamps as necessary. The plants were employed for testing when they reached the second or third true leaf stage.\n(§3) Emulsifiable concentrates of each of each pyridine carboxylate herbicide (Compound A or Compound B) were prepared at 100 grams acid equivalent per liter (g ae/L). The emulsifiable concentrates also included a safener, at 120 grams active ingredient per liter (g ai/L). An aliquot of each emulsifiable concentrate was placed in a 25 mL glass vial and diluted with an aqueous mixture of 1.25% (v/v) ACTIROB® B esterified rapeseed oil (Bayer Crop Science, Research Triangle Park, N.C., USA) or MSO® Concentrate with LECI-TECH® methylated soybean oil (Loveland Products, Loveland, Colo., USA) to obtain concentrated stock solutions at the highest application rate for each herbicide, based upon a 12 milliliter (mL) application volume at a rate of 187 liters per hectare (L/ha). The concentrated stock solutions were further diluted with an aqueous mixture of 1.25% v/v ACTIROB® B or MSO® Concentrate with LECI-TECH® to obtain stock solutions at reduced application rates for each herbicide. Spray solutions of the herbicide combinations (Compound A or Compound B plus the CBI herbicide) were prepared by adding weighed amounts or aliquots of the CBI herbicide to the stock solutions of Compound A or Compound B to form 12-mL spray solutions in two-way combinations.\n(§4) The spray solutions were applied to the plant material with an overhead Mandel track sprayer equipped with 8002E nozzles calibrated to deliver 187 L/ha over an application area of 0.503 square meters (m^2) at a spray height of 18 inches (43 centimeters (cm)) above the average plant canopy. Control plants were sprayed in the same manner with the solvent blank. All pyridine carboxylate herbicide (component a) application rates are given as “g ae/ha” and all CBI herbicide (component b) application rates are given as “g ai/ha.”\n(§5) The treated plants and control plants were placed in a greenhouse as described above and watered by sub-irrigation to prevent wash-off of the test compounds. After 20-22 d, the condition of the test plants as compared with that of the control plants was determined visually and scored on a scale of 0 to 100 percent where 0 corresponds to no injury and 100 corresponds to complete kill."}, "[2]": {"system": "Triticum aestivum (spring wheat)", "details": "TRZAS", "text": "as §1, §2, §3, §4, §5"}, "[3]": {"system": "Euphorbia heterophylla (poinsettia)", "test": "Greenhouse postemergence herbicidal effect, visual injury after 20-22 d", "details": "Table 1, EPHHL", "text": "as §1, §2, §3, §4, §5"}, "[4]": {"system": "Amaranthus retroflexus (pigweed)", "test": "Greenhouse postemergence herbicidal effect, visual injury after 20-22 d", "details": "AMARE", "text": "as §1, §2, §3, §4, §5"}, "[5]": {"system": "Helianthus annuus (common sunflower)", "test": "Greenhouse postemergence herbicidal effect, visual injury after 20-22 d", "details": "Table 1, HELAN", "text": "as §1, §2, §3, §4, §5"}, "[6]": {"system": "Brassica napus (winter rape)", "test": "Greenhouse postemergence herbicidal effect, visual injury after 20-22 d", "details": "BRSNW", "text": "as §1, §2, §3, §4, §5"}, "[7]": {"system": "Digitaria sanguinalis (large crabgrass)", "test": "Greenhouse postemergence herbicidal effect, visual injury after 20-22 d", "details": "DIGSA", "text": "as §1, §2, §3, §4, §5"}, "[8]": {"system": "Setaria faberi (giant foxtail)", "test": "Greenhouse postemergence herbicidal effect, visual injury after 20-22 d", "details": "SETFA", "text": "as §1, §2, §3, §4, §5"}, "[9]": {"system": "Kochia scoparia (kochia)", "test": "Greenhouse postemergence herbicidal effect, visual injury after 20-22 d", "details": "KCHSC", "text": "as §1, §2, §3, §4, §5"}, "[10]": {"system": "Ipomoea hederacea (ivyleaf morningglory)", "test": "Greenhouse postemergence herbicidal effect, visual injury after 20-22 d", "details": "IPOHE", "text": "as §1, §2, §3, §4, §5"}, "[11]": {"system": "Cirsium arvense (Canadian thistle)", "test": "Greenhouse postemergence herbicidal effect, visual injury after 20-22 d", "details": "CIRAR", "text": "as §1, §2, §3, §4, §5"}},
  "note": "Read-outs that look alike come from different tables or passages of the source.",
  "data": [
    {"smiles": "N#CCOC(=O)c1nc(-c2ccc3cc[nH]c3c2F)c(F)c(N)c1Cl", "note": "[Compound A, cyanomethyl 4-amino-3-chloro-5-fluoro-6-(7-fluoro-1H-indol-6-yl)pyridine-2-carboxylate]", "values": [
      {"measurement": "Obs % visual injury", "setting": "[1]; Table 3, Compound A 7.5 g/ha", "result": 8, "unit": "%"},
      {"measurement": "Obs % visual injury", "setting": "[1]; Table 3, Compound A 10 g/ha", "result": 5, "unit": "%"},
      {"measurement": "Obs % visual injury", "setting": "[1]; Table 3, Compound A 15 g/ha", "result": 3, "unit": "%"},
      {"measurement": "Obs % visual injury", "setting": "[1]; Table 4, Compound A 7.5 g/ha", "result": 8, "unit": "%"},
      {"measurement": "Obs % visual injury", "setting": "[1]; Table 4, Compound A 10 g/ha", "result": 5, "unit": "%"},
      {"measurement": "Obs % visual injury", "setting": "[1]; Table 4, Compound A 15 g/ha", "result": 3, "unit": "%"},
      {"measurement": "Obs % visual injury", "setting": "[2]; Table 3, Compound A 7.5 g/ha", "result": 3, "unit": "%"},
      {"measurement": "Obs % visual injury", "setting": "[2]; Table 3, Compound A 10 g/ha", "result": 3, "unit": "%"},
      {"measurement": "Obs % visual injury", "setting": "[2]; Table 3, Compound A 15 g/ha", "result": 0, "unit": "%"},
      {"measurement": "Obs % visual injury", "setting": "[2]; Table 4, Compound A 7.5 g/ha", "result": 3, "unit": "%"},
      {"measurement": "Obs % visual injury", "setting": "[2]; Table 4, Compound A 10 g/ha", "result": 3, "unit": "%"},
      {"measurement": "Obs % visual injury", "setting": "[2]; Table 4, Compound A 15 g/ha", "result": 0, "unit": "%"},
      {"measurement": "Obs % visual injury", "setting": "[3]; Compound A 7.5 g/ha", "result": 97, "unit": "%"},
      {"measurement": "Obs % visual injury", "setting": "[3]; Compound A 10 g/ha", "result": 97, "unit": "%"},
      {"measurement": "Obs % visual injury", "setting": "[4]; Table 1, Compound A 7.5 g/ha", "result": 88, "unit": "%"},
      {"measurement": "Obs % visual injury", "setting": "[4]; Table 1, Compound A 10 g/ha", "result": 88, "unit": "%"},
      {"measurement": "Obs % visual injury", "setting": "[4]; Table 3, Compound A 7.5 g/ha", "result": 78, "unit": "%"},
      {"measurement": "Obs % visual injury", "setting": "[4]; Table 3, Compound A 10 g/ha", "result": 78, "unit": "%"},
      {"measurement": "Obs % visual injury", "setting": "[4]; Table 3, Compound A 15 g/ha", "result": 83, "unit": "%"},
      {"measurement": "Obs % visual injury", "setting": "[4]; Table 4, Compound A 7.5 g/ha", "result": 78, "unit": "%"},
      {"measurement": "Obs % visual injury", "setting": "[4]; Table 4, Compound A 10 g/ha", "result": 78, "unit": "%"},
      {"measurement": "Obs % visual injury", "setting": "[4]; Table 4, Compound A 15 g/ha", "result": 83, "unit": "%"},
      {"measurement": "Obs % visual injury", "setting": "[5]; Compound A 7.5 g/ha", "result": 90, "unit": "%"},
      {"measurement": "Obs % visual injury", "setting": "[5]; Compound A 10 g/ha", "result": 89, "unit": "%"},
      {"measurement": "Obs % visual injury", "setting": "[6]; Table 3, Compound A 7.5 g/ha", "result": 60, "unit": "%"},
      {"measurement": "Obs % visual injury", "setting": "[6]; Table 3, Compound A 10 g/ha", "result": 60, "unit": "%"},
      {"measurement": "Obs % visual injury", "setting": "[6]; Table 3, Compound A 15 g/ha", "result": 75, "unit": "%"},
      {"measurement": "Obs % visual injury", "setting": "[6]; Table 4, Compound A 7.5 g/ha", "result": 60, "unit": "%"},
      {"measurement": "Obs % visual injury", "setting": "[6]; Table 4, Compound A 10 g/ha", "result": 60, "unit": "%"},
      {"measurement": "Obs % visual injury", "setting": "[6]; Table 4, Compound A 15 g/ha", "result": 75, "unit": "%"},
      {"measurement": "Obs % visual injury", "setting": "[7]; Table 1, Compound A 7.5 g/ha", "result": 35, "unit": "%"},
      {"measurement": "Obs % visual injury", "setting": "[7]; Table 1, Compound A 10 g/ha", "result": 38, "unit": "%"},
      {"measurement": "Obs % visual injury", "setting": "[7]; Table 2, Compound A 7.5 g/ha", "result": 45, "unit": "%"},
      {"measurement": "Obs % visual injury", "setting": "[7]; Table 2, Compound A 10 g/ha", "result": 25, "unit": "%"},
      {"measurement": "Obs % visual injury", "setting": "[8]; Table 1, Compound A 7.5 g/ha", "result": 78, "unit": "%"},
      {"measurement": "Obs % visual injury", "setting": "[8]; Table 1, Compound A 10 g/ha", "result": 80, "unit": "%"},
      {"measurement": "Obs % visual injury", "setting": "[8]; Table 2, Compound A 7.5 g/ha", "result": 70, "unit": "%"},
      {"measurement": "Obs % visual injury", "setting": "[8]; Table 2, Compound A 10 g/ha", "result": 70, "unit": "%"},
      {"measurement": "Obs % visual injury", "setting": "[9]; Table 1, Compound A 7.5 g/ha", "result": 75, "unit": "%"},
      {"measurement": "Obs % visual injury", "setting": "[9]; Table 1, Compound A 10 g/ha", "result": 73, "unit": "%"},
      {"measurement": "Obs % visual injury", "setting": "[9]; Table 2, Compound A 7.5 g/ha", "result": 60, "unit": "%"},
      {"measurement": "Obs % visual injury", "setting": "[9]; Table 2, Compound A 10 g/ha", "result": 65, "unit": "%"},
      {"measurement": "Obs % visual injury", "setting": "[9]; Table 3, Compound A 7.5 g/ha", "result": 70, "unit": "%"},
      {"measurement": "Obs % visual injury", "setting": "[9]; Table 3, Compound A 10 g/ha", "result": 70, "unit": "%"},
      {"measurement": "Obs % visual injury", "setting": "[9]; Table 3, Compound A 15 g/ha", "result": 70, "unit": "%"},
      {"measurement": "Obs % visual injury", "setting": "[9]; Table 4, Compound A 7.5 g/ha", "result": 70, "unit": "%"},
      {"measurement": "Obs % visual injury", "setting": "[9]; Table 4, Compound A 10 g/ha", "result": 70, "unit": "%"},
      {"measurement": "Obs % visual injury", "setting": "[9]; Table 4, Compound A 15 g/ha", "result": 70, "unit": "%"},
      {"measurement": "Obs % visual injury", "setting": "[10]; Table 1, Compound A 7.5 g/ha", "result": 20, "unit": "%"},
      {"measurement": "Obs % visual injury", "setting": "[10]; Table 1, Compound A 10 g/ha", "result": 25, "unit": "%"},
      {"measurement": "Obs % visual injury", "setting": "[10]; Table 2, Compound A 7.5 g/ha", "result": 3, "unit": "%"},
      {"measurement": "Obs % visual injury", "setting": "[10]; Table 2, Compound A 10 g/ha", "result": 8, "unit": "%"},
      {"measurement": "Obs % visual injury", "setting": "[11]; Table 1, Compound A 7.5 g/ha", "result": 40, "unit": "%"},
      {"measurement": "Obs % visual injury", "setting": "[11]; Table 1, Compound A 10 g/ha", "result": 60, "unit": "%"},
      {"measurement": "Obs % visual injury", "setting": "[11]; Table 2, Compound A 7.5 g/ha", "result": 23, "unit": "%"},
      {"measurement": "Obs % visual injury", "setting": "[11]; Table 2, Compound A 10 g/ha", "result": 20, "unit": "%"}
    ]}
  ]
}
